# From patent US20060160756A1, “Treatment and prevention of multi-drug resistance” (priority 2004, published 2006)
# Read-outs that look alike come from different tables or passages of the source.
# How the values were obtained:
# [1] = tested on: K562/adriamycin-resistant cells; test: MTT assay: dofediquar effect on ADM cytotoxicity / growth of MDR cells; format: cell-based; settings: for Growth rate (% of control): 2nd incubation (24 hr) without MS-209, MS-209 3 μM where present
# [2] = Pharmacokinetics of dofediquar after single oral administration to fasted healthy male volunteers; format: in vivo, healthy male Japanese adults; settings: for AUC / Cmax / Tmax / t½: mean ± S.D.
# Method: The pharmacokinetic parameters of dofediquar (MS-209) are investigated in fasted healthy male Japanese adults. The study design is described in Table 2. The plasma concentrations of dofediquar after single oral administration of increasing doses from 100 to 1200 mg to fasted healthy male Japanese adults is illustrated in FIGS. 2 and 3.
# [3] = Concentrations of dofediquar in plasma and tumor tissue after single oral administration in colon 26-bearing mice; format: in vivo; settings: for Concentration of MS-209, Plasma / Concentration of MS-209, Tumor: mean ± SD of N = 3
# [4] = tested on: drug-resistant cancer cell lines; test: In vitro studies using drug-resistant cancer cell lines (effective concentration); format: cell-based
# Method: The effective concentration of dofediquar of about 3 μM (ca. 2 μg/mL) indicated in in vitro studies using drug-resistant cancer cell lines, is achieved at doses of 300 mg or higher.
# [5] = 100 mg single oral dose, fasted
# [6] = 300 mg single oral dose, fasted
# [7] = 600 mg single oral dose, fasted
# [8] = 900 mg single oral dose, fasted
# [9] = 1200 mg single oral dose, fasted
# [10] = single oral doses 100 to 1200 mg
# [11] = 0.5 h after single oral 200 mg/kg
# [12] = 1 h after single oral 200 mg/kg
# [13] = 2 h after single oral 200 mg/kg
# [14] = 5 h after single oral 200 mg/kg
# [15] = 24 h after single oral 200 mg/kg
smiles,measurement,setting,value
"COc1cccc2c1C(=O)c1c(O)c3c(c(O)c1C2=O)C[C@@](O)(C(=O)CO)C[C@@H]3O[C@H]1C[C@H](N)[C@H](O)[C@H](C)O1 [ADM, adriamycin]",Growth rate (% of control),"[1]; ADM 100 ng/ml, 1st incubation 1 hr",93.4 % of control
same,Growth rate (% of control),"[1]; ADM 100 ng/ml, 1st incubation 3 hr",102 % of control
same,Growth rate (% of control),"[1]; ADM 100 ng/ml, 1st incubation 6 hr",92.0 % of control
same,Growth rate (% of control),"[1]; ADM 300 ng/ml, 1st incubation 1 hr",88.1 % of control
same,Growth rate (% of control),"[1]; ADM 300 ng/ml, 1st incubation 6 hr",100 % of control
O=C(C(c1ccccc1)c1ccccc1)N1CCN(CC(O)COc2cccc3ncccc23)CC1 (stereo not drawn) [dofediquar],Cell growth inhibition with vs without dofediquar during the 2nd incubation,"[1]; co-treated with adriamycin (100-300 ng/ml) and dofediquar (3 μM), then 2nd incubation (24 hr) with dofediquar alone",slightly more inhibited
same,Enhancement of ADM cytotoxicity,"[1]; pretreated with 3 μM dofediquar for 24 hours, washed away, then ADM alone for 72 hours (FIG. 1)",does not show an enhancement of ADM cytotoxicity
same,AUC,[2]; [5],720 ± 210 ng·h/mL
same,Cmax,[2]; [5],470 ± 200 ng/mL
same,Tmax,[2]; [5],1.04 ± 0.40 h
same,t½,[2]; [5],0.89 ± 0.37 h
same,AUC,[2]; [6],7290 ± 2540 ng·h/mL
same,Cmax,[2]; [6],2700 ± 740 ng/mL
same,Tmax,[2]; [6],1.04 ± 0.40 h
same,t½,[2]; [6],1.17 ± 0.25 h
same,AUC,[2]; [7],32470 ± 5940 ng·h/mL
same,Cmax,[2]; [7],10110 ± 2140 ng/mL
same,Tmax,[2]; [7],0.75 ± 0.22 h
same,t½,[2]; [7],2.25 ± 0.47 h
same,AUC,[2]; [8],62900 ± 9670 ng·h/mL
same,Cmax,[2]; [8],14030 ± 2480 ng/mL
same,Tmax,[2]; [8],1.67 ± 0.68 h
same,t½,[2]; [8],2.39 ± 0.37 h
same,AUC,[2]; [9],105390 ± 20100 ng·h/mL
same,Cmax,[2]; [9],20990 ± 2150 ng/mL
same,Tmax,[2]; [9],1.00 ± 0.27 h
same,t½,[2]; [9],3.10 ± 0.31 h
same,Detection in plasma,"[2]; dose of 10 mg, single oral",not detected
same,Detection in plasma,"[2]; dose of 30 mg, single oral",detected in one of 6 subjects
same,Manner of decline of plasma concentration after the peak,"[2]; doses of 100 mg or higher, single oral",declines in a monophasic manner
same,Dose at which the effective concentration of about 3 μM (ca. 2 μg/mL) is achieved in plasma,"[2]; single oral dose, fasted",≥ 300 mg
same,Dose dependence of Cmax and AUC,[2]; [10],increase more steeply than expected from the dose increase
same,Dose dependence of Tmax,[2]; [10],does not change
same,Dose dependence of half-life,[2]; [10],increases with increasing dose
same,"Concentration of MS-209, Plasma",[3]; [11],25600 ± 9300 ng/mL
same,"Concentration of MS-209, Tumor",[3]; [11],15.9 ± 8.1 µg/g
same,"Concentration of MS-209, Plasma",[3]; [12],33000 ± 6300 ng/mL
same,"Concentration of MS-209, Tumor",[3]; [12],30.6 ± 7.5 µg/g
same,"Concentration of MS-209, Plasma",[3]; [13],27300 ± 7000 ng/mL
same,"Concentration of MS-209, Tumor",[3]; [13],28.0 ± 9.4 µg/g
same,"Concentration of MS-209, Plasma",[3]; [14],24600 ± 10000 ng/mL
same,"Concentration of MS-209, Tumor",[3]; [14],25.8 ± 10 µg/g
same,"Concentration of MS-209, Plasma",[3]; [15],610 ± 410 ng/mL
same,"Concentration of MS-209, Tumor",[3]; [15],0.52 ± 0.49 µg/g
same,"AUC, Plasma",[3]; single oral 200 mg/kg,368000 ng·h/mL
same,"AUC, Tumor",[3]; single oral 200 mg/kg,376 µg·h/g
same,Effective concentration,[4],about 3 μM
same,Effective concentration,[4]; same value as 3 μM,ca. 2 μg/mL
